Legend:
Type in all cases: cell-based
Proteus vulgaris = assay: MIC against Gram-negative bacteria: Proteus vulgaris; settings: 10 h cultivation at 37° C.; for MIC against P. vulgaris: Proteus vulgaris
Procedure: (§1) 1. Gram-negative bacteria, such as E. coli BL21, Pseudomonas aeruginosa, Klebsiella pneumonia, Enterobacter cloacae, Aeromonas hydrophila, Citrobacter diversus, Moraxella catarrhalis, Proteus mirabilis, Proteus vulgaris, Serratia marcescens, etc were streaked on solid LB medium and cultured respectively. Then, typical clones were picked, inoculated into common liquid LB medium respectively, and cultured at 37° C. with shaking at 185 rpm until the McFarland specific turbidity was 0.5. The bacterial culture of each of Gram-negative bacteria was centrifuged at 4000×g for 3 min, the supernatant was discarded, and the thalli were resuspended with fresh LB medium.
(§2) 2. The above-mentioned bacterial suspensions were diluted and inoculated into 96-well plates with the final concentration of the bacterial suspension being 5×10^5 CFU/mL per well.
(§3) 3. Each of the purified human-originated EGF domain proteins (PRT1 to PRT1498 in Table 1) was added to each of the above wells and subjected to two-fold serial dilution in concentration. Three parallel wells were set up for each concentration in the gradient.
(§4) 4. The above-mentioned 96-well plates were placed and cultured at 37° C. in shaking incubator shaking at 175 rpm. […] The minimal inhibitory concentration MIC is defined as the lowest concentration of the recombinant protein at which there is no growth of the bacteria.

Moraxella catarrhalis = assay: MIC against Gram-negative bacteria: Moraxella catarrhalis; settings: 10 h cultivation at 37° C.; for MIC against M. catarrhalis: Moraxella catarrhalis
Procedure: as §1, §2, §3, §4

Pseudomonas aeruginosa = assay: MIC against Gram-negative bacteria: Pseudomonas aeruginosa; settings: 10 h cultivation at 37° C.; for MIC against P. aeruginosa: Pseudomonas aeruginosa
Procedure: as §1, §2, §3, §4

E. coli DH5α = assay: Antibacterial activity: MIC and growth curve against E. coli DH5α in 96-well plate; settings: minimal inhibitory concentration against E. coli DH5α; 96-well plate, 5×10^5 CFU/mL, 37° C., judged after 8 h
Procedure: 1. E. coli DH5α was exemplified. E. coli DH5α was streaked and cultured on LB solid medium. Then, a typical clone was picked and inoculated into common LB liquid medium, cultured at 37° C. with shaking at 185 rpm until the logarithmic growth phase was reached (OD600 of about 0.5). The bacterial culture was centrifuged at 4000×g for 3 min, the supernatant was discarded, and the thalli were resuspended with fresh LB medium.
2. The above-mentioned bacterial suspension was diluted and inoculated into a 96-well plate with the total volume of 100 μL per well and a bacterial count of 5×10^5 CFU/mL.
3. The recombinant protein hF VII-EGF1 was added to the above-mentioned wells with the final protein concentration in the well of the highest protein concentration being 50 μg/mL. Basing on this final concentration, a two-fold serial dilution was performed till a protein concentration gradient consisting of 50, 25, and 12.5 μg/mL was set up. Three parallel wells were set up for each concentration in the gradient.
as §4, with “plate was” for “plates were”, “rpm. Samples were taken every 30 min, the absorbance values were determined at 600 nm wavelength under a ultra violet spectrophotometer, and an inhibition curve was plotted.” for “rpm.”
According to the experimental procedures in Example 14, the minimal inhibitory concentrations (MIC, μg/mL) of the other human-originated EGF domain proteins (PRT2 to PRT1498 in Table 1) for E. coli DH5α were determined.

Citrobacter diversus = assay: MIC against Gram-negative bacteria: Citrobacter diversus; settings: 10 h cultivation at 37° C.; for MIC against C. diversus: Citrobacter diversus
Procedure: as §1, §2, §3, §4

Klebsiella pneumonia = assay: MIC against Gram-negative bacteria: Klebsiella pneumonia; settings: 10 h cultivation at 37° C.; for MIC against K. pneumonia: Klebsiella pneumonia
Procedure: as §1, §2, §3, §4

Proteus mirabilis = assay: MIC against Gram-negative bacteria: Proteus mirabilis; settings: 10 h cultivation at 37° C.; for MIC against P. mirabilis: Proteus mirabilis
Procedure: as §1, §2, §3, §4

Aeromonas hydrophila = assay: MIC against Gram-negative bacteria: Aeromonas hydrophila; settings: 10 h cultivation at 37° C.; for MIC against A. hydrophila: Aeromonas hydrophila
Procedure: as §1, §2, §3, §4

E. coli BL21 = assay: MIC against Gram-negative bacteria: E. coli BL21; settings: 10 h cultivation at 37° C.
Procedure: as §1, §2, §3, §4

Serratia marcescens = assay: MIC against Gram-negative bacteria: Serratia marcescens; settings: 10 h cultivation at 37° C.; for MIC against S. marcescens: Serratia marcescens
Procedure: as §1, §2, §3, §4

Enterobacter cloacae = assay: MIC against Gram-negative bacteria: Enterobacter cloacae; settings: 10 h cultivation at 37° C.; for MIC against E. cloacae: Enterobacter cloacae
Procedure: as §1, §2, §3, §4

[1] = 5×10^5 CFU/mL, two-fold serial dilution

With “PRT164 (YKDPCANVSCLNGATCDSDGLNGTCICAPGFTGEECD; listed as Homo sapiens)” the “MIC (μg/mL) P. vulgaris” value (Proteus vulgaris; P. vulgaris, 5×10^5 CFU/mL) was 50 µg/mL, the “MIC (μg/mL) M. catarrhalis” value (Moraxella catarrhalis; M. catarrhalis, 5×10^5 CFU/mL) was 50 µg/mL and the “MIC (μg/mL) P. aeruginosa” value (Pseudomonas aeruginosa; P. aeruginosa, 5×10^5 CFU/mL) was 25 µg/mL. For the same substance, the MIC (E. coli DH5α) was 25 µg/mL, the “MIC (μg/mL) C. diversus” value (Citrobacter diversus; C. diversus, 5×10^5 CFU/mL) was 12.5 µg/mL and the “MIC (μg/mL) K. pneumonia” value (Klebsiella pneumonia; K. pneumonia, 5×10^5 CFU/mL) was 12.5 µg/mL. The “MIC (μg/mL) P. mirabilis” value (Proteus mirabilis; P. mirabilis, 5×10^5 CFU/mL) was 12.5 µg/mL, the “MIC (μg/mL) A. hydrophila” value (Aeromonas hydrophila; A. hydrophila, 5×10^5 CFU/mL) was 50 µg/mL and the “MIC (μg/mL) E. coli BL21” value (E. coli BL21; E. coli BL21, 5×10^5 CFU/mL) was 50 µg/mL. For the same substance, the “MIC (μg/mL) S. marcescens” value (Serratia marcescens; S. marcescens, 5×10^5 CFU/mL) was 12.5 µg/mL and the “MIC (μg/mL) E. cloacae” value (Enterobacter cloacae; E. cloacae, 5×10^5 CFU/mL) was 25 µg/mL.

For “PRT1391 (PLPVCQEQCSGHGTFLLDAGVCSCDPKWTGSDCS; listed as Homo sapiens)”, the “MIC against P. vulgaris” value (Proteus vulgaris; 5×10^5 CFU/mL) was 12.5 µg/mL, the “MIC against M. catarrhalis” value (Moraxella catarrhalis; 5×10^5 CFU/mL) was 12.5 µg/mL and the “MIC against P. aeruginosa” value (Pseudomonas aeruginosa; 5×10^5 CFU/mL) was 12.5 µg/mL. For the same substance, the MIC (E. coli DH5α) was 12.5 µg/mL, the “MIC against C. diversus” value (Citrobacter diversus; 5×10^5 CFU/mL) was 12.5 µg/mL and the “MIC against K. pneumonia” value (Klebsiella pneumonia; 5×10^5 CFU/mL) was 12.5 µg/mL. For the same substance, the “MIC against P. mirabilis” value (Proteus mirabilis; 5×10^5 CFU/mL) was 12.5 µg/mL, the “MIC against A. hydrophila” value (Aeromonas hydrophila; 5×10^5 CFU/mL) was 12.5 µg/mL and the “MIC against E. coli BL21” value (E. coli BL21; E. coli BL21, 5×10^5 CFU/mL) was 12.5 µg/mL. For the same substance, the “MIC against S. marcescens” value (Serratia marcescens; 5×10^5 CFU/mL) was 12.5 µg/mL and the “MIC against E. cloacae” value (Enterobacter cloacae; 5×10^5 CFU/mL) was 12.5 µg/mL.

Work on “PRT1030 (DVDECSENRCHPAATCYNTPGSFSCRCQPGYYGDGFQCI; listed as Homo sapiens)” yielded an MIC (Proteus vulgaris; P. vulgaris) of 12.5 µg/mL, an MIC (Moraxella catarrhalis; M. catarrhalis) of 12.5 µg/mL and an MIC (Pseudomonas aeruginosa; P. aeruginosa) of 50 µg/mL. For the same substance, the MIC (E. coli DH5α) was 25 µg/mL, the MIC (Citrobacter diversus; C. diversus) was 50 µg/mL and the MIC (Klebsiella pneumonia; K. pneumonia) was 12.5 µg/mL. It also gave an MIC (Proteus mirabilis; P. mirabilis) of 50 µg/mL, an MIC (Aeromonas hydrophila; A. hydrophila) of 25 µg/mL and an MIC (E. coli BL21; E. coli BL21) of 12.5 µg/mL. For the same substance, the MIC (Serratia marcescens; S. marcescens) was 50 µg/mL and the MIC (Enterobacter cloacae; E. cloacae) was 50 µg/mL.

With “PRT1376 (ATRMCPADCRGRGRCVQGVCLCHVGYGGEDCG; listed as Homo sapiens)” the “MIC against P. vulgaris” value (Proteus vulgaris; 5×10^5 CFU/mL) was 12.5 µg/mL, the “MIC against M. catarrhalis” value (Moraxella catarrhalis; 5×10^5 CFU/mL) was 12.5 µg/mL and the “MIC against P. aeruginosa” value (Pseudomonas aeruginosa; 5×10^5 CFU/mL) was 50 µg/mL. The MIC (E. coli DH5α) was 50 µg/mL, the “MIC against C. diversus” value (Citrobacter diversus; 5×10^5 CFU/mL) was 50 µg/mL and the “MIC against K. pneumonia” value (Klebsiella pneumonia; 5×10^5 CFU/mL) was 12.5 µg/mL. The “MIC against P. mirabilis” value (Proteus mirabilis; 5×10^5 CFU/mL) was 50 µg/mL, the “MIC against A. hydrophila” value (Aeromonas hydrophila; 5×10^5 CFU/mL) was 12.5 µg/mL and the “MIC against E. coli BL21” value (E. coli BL21; E. coli BL21, 5×10^5 CFU/mL) was 12.5 µg/mL. For the same substance, the “MIC against S. marcescens” value (Serratia marcescens; 5×10^5 CFU/mL) was 25 µg/mL and the “MIC against E. cloacae” value (Enterobacter cloacae; 5×10^5 CFU/mL) was 50 µg/mL.

“PRT1120 (DEDECASSPCQHGGRCLQRSDPALYGGVQAAFPGAFSFRHAAGFLCHCPPGFEGADCG; listed as Homo sapiens)” was tested, and the “MIC P. vulgaris” value (Proteus vulgaris; [1]) was 12.5 µg/mL, the “MIC M. catarrhalis” value (Moraxella catarrhalis; [1]) was 12.5 µg/mL and the “MIC P. aeruginosa” value (Pseudomonas aeruginosa; [1]) was 25 µg/mL. The MIC (E. coli DH5α) was 25 µg/mL, the “MIC C. diversus” value (Citrobacter diversus; [1]) was 50 µg/mL and the “MIC K. pneumonia” value (Klebsiella pneumonia; [1]) was 50 µg/mL. The “MIC P. mirabilis” value (Proteus mirabilis; [1]) was 50 µg/mL, the “MIC A. hydrophila” value (Aeromonas hydrophila; [1]) was 12.5 µg/mL and the “MIC E. coli BL21” value (E. coli BL21; [1]) was 12.5 µg/mL. The “MIC S. marcescens” value (Serratia marcescens; [1]) was 12.5 µg/mL and the “MIC E. cloacae” value (Enterobacter cloacae; [1]) was 25 µg/mL.

With “PRT369 (DVDECLSSPCVSGVCRNLAGSYTCKCGPGSRLDPSGTFCL; listed as Homo sapiens)” the MIC (Proteus vulgaris; P. vulgaris, 5×10^5 CFU/mL) was 50 µg/mL, the MIC (Moraxella catarrhalis; M. catarrhalis, 5×10^5 CFU/mL) was 50 µg/mL and the MIC (Pseudomonas aeruginosa; P. aeruginosa, 5×10^5 CFU/mL) was 12.5 µg/mL. For the same substance, the MIC (E. coli DH5α) was 50 µg/mL, the MIC (Citrobacter diversus; C. diversus, 5×10^5 CFU/mL) was 25 µg/mL and the MIC (Klebsiella pneumonia; K. pneumonia, 5×10^5 CFU/mL) was 50 µg/mL. The MIC (Proteus mirabilis; P. mirabilis, 5×10^5 CFU/mL) was 12.5 µg/mL, the MIC (Aeromonas hydrophila; A. hydrophila, 5×10^5 CFU/mL) was 12.5 µg/mL and the MIC (E. coli BL21; E. coli BL21, 5×10^5 CFU/mL) was 25 µg/mL. It also gave an MIC (Serratia marcescens; S. marcescens, 5×10^5 CFU/mL) of 12.5 µg/mL and an MIC (Enterobacter cloacae; E. cloacae, 5×10^5 CFU/mL) of 25 µg/mL.
